Test results published in paper PMC8071183 (International Journal of Molecular Sciences, 2021).

Columns and labels:
GIRK channels [1] = settings: haloperidol at 1 µM; cited from earlier work
GIRK channels [2] = experiment: Direct GIRK channel block by haloperidol; format: cell-based; settings: haloperidol at 3 µM; n = 4
D2R = settings: 1 µM haloperidol; 100 nM DA; cited from earlier work
[3] = target: T1, D2R S193^5.42A (human dopamine D2S receptor mutant) (Homo sapiens, UniProt P14416, S193A); experiment: cell-based
T1 sequence (P14416 1-414 isoform P14416-2 S193A): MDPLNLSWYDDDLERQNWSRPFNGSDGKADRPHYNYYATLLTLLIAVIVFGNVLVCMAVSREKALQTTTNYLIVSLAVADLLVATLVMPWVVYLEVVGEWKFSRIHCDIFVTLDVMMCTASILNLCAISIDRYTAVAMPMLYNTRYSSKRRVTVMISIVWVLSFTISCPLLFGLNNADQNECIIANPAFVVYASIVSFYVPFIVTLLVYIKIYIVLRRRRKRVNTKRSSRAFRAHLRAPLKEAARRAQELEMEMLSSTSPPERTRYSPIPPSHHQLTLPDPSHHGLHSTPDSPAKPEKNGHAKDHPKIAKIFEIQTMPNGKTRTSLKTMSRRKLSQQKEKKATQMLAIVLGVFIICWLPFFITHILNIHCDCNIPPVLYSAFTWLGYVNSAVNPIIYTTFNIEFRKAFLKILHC
Experimental: (§1) A straight line was fitted to the data over the linear range of the relation between kobs and agonist concentration and the slope was taken as a measure of kon.
(§2) Experiments were performed using a perfusion rate of 4.5 mL/min. […] Note the logarithmic y-axis. […] Data are presented as mean ± SEM.
(§3) Association rate constant estimates were derived from recordings of GIRK current activation in response to applications of various agonist concentrations. Monoexponential functions were fit to cover 80% of the current increase in response to agonist using Levenberg–Marquardt least-squares fitting in Clampfit 10, outputting the activation time constant, τact. […] However, rather than using Equation (2), koff was calculated separately from the response decay time constant upon agonist washout, τdeact, as described above.
Kinetic Kds were calculated as:Kd = koff/kon(3)

[4] = target: T2, WT D2R (human dopamine D2S receptor) (Homo sapiens, UniProt P14416); experiment: GIRK current deactivation following agonist washout (koff estimate), WT D2R; format: cell-based
T2 sequence (P14416 1-414 isoform P14416-2): as the sequence (P14416 1-414 isoform P14416-2 S193A) above, with A193S counted along it
Experimental: We obtained such estimates of koff by analyzing the washout phase following short (13 s) applications of submaximally effective agonist concentrations (see legend of Figure 2) in oocytes co-expressing WT D2R with GIRK1/4 and RGS4.
Experiments were performed using a perfusion rate of 4.5 mL/min. Data are presented as mean ± SEM.
(§4) Injected cells were incubated for another 6 days at 12 °C in modified Barth’s solution (MBS), composed of (in mM): 88 NaCl, 1 KCl, 2.4 NaHCO3, 15 HEPES, 0.33 Ca(NO3)2, 0.41 CaCl2, 0.92 MgSO4, and 2.5 sodium pyruvate, supplemented with 25 U/mL penicillin and 25 µg/mL streptomycin and adjusted to pH 7.6 with NaOH. […] For each concentration of agonist, the relative current amplitude after 60 s (when a steady-state response had been achieved) of agonist perfusion was plotted to generate the concentration-response relationships. Oocytes were selected for electrophysiology recordings based on having holding currents at −40 mV of less than 0.5 µA. Likewise, recordings where holding currents at −40 mV were greater than 0.5 µA after data acquisition at −80 mV were discarded.

[5] = target: T1, D2R S193^5.42A (human dopamine D2S receptor mutant); experiment: cell-based; settings: read-out: koff ± SEM
[6] = target: T2, WT D2R (human dopamine D2S receptor); experiment: cell-based
Experimental: (§5) Following agonist application to Xenopus oocytes expressing D2R and GIRK1/4 subunits, Gβγ subunits released from activated Gi/o protein heterotrimers open the GIRK channels. […] Here, we used the GIRK current in oocytes voltage-clamped at −80 mV and superfused with a high-K^+ buffer (25 mM KCl) as a readout of agonist binding to D2R.
(§6) Thus, increasing agonist concentrations were applied consecutively to voltage-clamped oocytes expressing WT D2R, RGS4, and GIRK1/4. […] A representative trace of currents measured during p-tyramine concentration–response data acquisition is shown in Supplementary Figure S1).
as §4
(§7) Agonist concentration–response relationships were analyzed by fitting sigmoidal functions using nonlinear regression in GraphPad Prism 8 (GraphPad Software, San Diego, CA, USA).

[7] = target: T1, D2R S193^5.42A (human dopamine D2S receptor mutant); experiment: cell-based; settings: for EC50: GIRK activation, perfusion 1 mL/min
Experimental: as §5, §6, §4, §7

[8] = target: T2, WT D2R (human dopamine D2S receptor); experiment: GIRK current activation rate (kobs) vs agonist concentration (kon estimate), WT D2R; format: cell-based
Experimental: as §1, §2, §3

D2R S193^5.42A = settings: cited from earlier work

Row | SMILES | GIRK channel block (GIRK channels [1]) | direct GIRK current block (GIRK channels [2]) [%] | block of the GIRK response to DA (D2R) | Kd [3] [µM] | kon ([3]; read-out: kon ± SEM) [M⁻¹ s⁻¹] | koff [4] [s⁻¹] | koff [5] [s⁻¹] | EC50 [6] [µM] | Relative efficacy (fitted Top) ([6]; WT D2R, normalized to the response evoked by 1 µM DA) | EC50 ([7]; EC50, S193^5.42A D2R) [µM] | Relative efficacy (fitted Top) ([7]; S193^5.42A D2R, normalized to the response evoked by 300 µM DA) | fold increase of DA-normalized agonist efficacy at S193^5.42A ([7]; S193^5.42A vs WT D2R) [fold] | EC50 ([7]; pEC50 ± SEM, S193^5.42A D2R) [µM] | Kd ([8]; Kd = koff/kon, read-out: pKd ± SEM (kinetic Kd) (converted)) [µM] | kon ([8]; slope of linear fit of kobs vs agonist concentration, perfusion 4.5 mL/min) [M⁻¹ s⁻¹] | decrease of affinity by alanine mutation of S193^5.42 (D2R S193^5.42A)
1 | O=C(CCCN1CCC(O)(c2ccc(Cl)cc2)CC1)c1ccc(F)cc1 [haloperidol] | negligible | 5.9 ± 0.2 | fully blocks |  |  |  |  |  |  |  |  |  |  |  |  | 
2 | NCCc1ccc(O)cc1 [p-tyramine] |  |  |  | 11.7 | 9410 ± 2.34e+06 | 0.123 ± 0.008 | 0.112 ± 0.008 | 100 | 0.09 ± 0.01 | 47.9 | 0.37 ± 0.01 | 4.1 | 47.9 | 24.5 | 4940 ± 1.15e+06 | less than twofold
